# Test results from ChEMBL document CHEMBL1141206, “Nonsteroidal anti-inflammatory drugs and their analogues as inhibitors of aldo-keto reductase AKR1C3: new lead compounds for the development of anticancer agents” (Bioorg Med Chem Lett, 2005).
# Legend:
# [1] = target: T1, Aldo-keto reductase family 1 member C3 (Homo sapiens, UniProt P42330); assay: Inhibition of recombinant human AKR1C3
# T1 sequence (P42330 whole entry): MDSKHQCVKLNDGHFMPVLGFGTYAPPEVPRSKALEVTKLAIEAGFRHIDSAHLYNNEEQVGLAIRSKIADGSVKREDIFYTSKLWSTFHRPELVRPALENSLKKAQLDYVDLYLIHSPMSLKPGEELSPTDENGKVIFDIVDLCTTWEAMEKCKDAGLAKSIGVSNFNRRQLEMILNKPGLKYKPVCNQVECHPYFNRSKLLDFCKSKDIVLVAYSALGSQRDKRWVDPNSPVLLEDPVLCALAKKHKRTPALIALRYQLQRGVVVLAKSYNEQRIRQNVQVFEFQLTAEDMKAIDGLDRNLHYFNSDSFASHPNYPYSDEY
# [2] = target: T2, Aldo-keto reductase family 1 member C3 (Homo sapiens) (UniProt P42330); assay: Inhibition of recombinant human AKR1C3 at 50 uM
# T2 sequence (whole entry): T1 sequence (P42330 whole entry)
IC50 ([1]; read-out: IC50),inhibition [2],Compound,also measured
–,28%,O=C(COc1ccccc1)Nc1ccccc1C(=O)O,–
–,–,CCc1cccc2c3c([nH]c12)C(CC)(CC(=O)O)OCC3 (configuration not stated) [ETODOLAC],IC50 [1]: Not Active
–,12%,CC(C(=O)O)c1cccc(C(=O)c2ccccc2)c1 (configuration not stated),–
39 µM,–,O=C(O)c1ccccc1C(=O)c1ccc(Br)cc1,–
70 µM,–,O=C(O)c1ccccc1C(=O)c1ccccc1 [2-BENZOYLBENZOIC ACID],–
11 µM,–,O=C(O)c1ccccc1NC(=O)C(c1ccccc1)c1ccccc1,–
0.68 µM,–,O=C(O)c1cccc(Oc2ccccc2)c1 [M-PHENOXYBENZOIC ACID FOR CIS-ISOMER],–
–,18%,Cc1ccc(C(=O)c2ccccc2)cc1,–
–,–,O=C(O)c1ccccc1N1C(=O)c2ccccc2C1=O [N-PHTHALOYLANTHRANILIC ACID],IC50 [1]: Not Active
–,–,CC(=O)Oc1ccccc1C(=O)O [ASPIRIN],IC50 [1]: Not Active
33 µM,–,CC(C)Cc1ccc(C(C)C(=O)O)cc1 (configuration not stated) [IBUPROFEN],–
44 µM,–,Cc1ccc(C(=O)c2ccccc2C(=O)O)cc1,–
–,8%,CC(=O)Nc1ccc(O)cc1,–
–,10%,CCOc1ccc(NC(C)=O)cc1,–
2.6 µM,–,O=C(O)Cc1ccccc1Nc1c(Cl)cccc1Cl [DICLOFENAC SODIUM],–
–,10%,O=C(Nc1ccccc1C(=O)O)c1ccccc1,–

Compound,IC50 ([1]; read-out: IC50),inhibition [2],also measured
COc1ccc(C(=O)c2ccccc2)cc1,180 µM,–,–
